Measurements as given in article PMC11822723 (ACS Omega, 2025).
Values after ≈ are worked out from the molar mass of the structure shown. Where two headings read alike, the source gives them in different places.

Key:
albumin = molecular target: T1, albumin (Bos taurus, UniProt P02769); experiment: Albumin binding in phosphate-buffered fetal calf serum, 195Pt traces by SEC-ICP-MS; type: in vitro ADME; details: for bound to albumin at time point 0 / bound to albumin after 1 h of incubation: 100 μM in FCS (150 mM phosphate buffer, pH 7.4), 37 °C
T1 construct: Serum proteins (including albumin) have a retention time of 2–4 min, with the albumin fraction eluting at 4.0 min; tissue Sigma-Aldrich; host or cells: fetal calf serum (whole serum, buffered with 150 mM phosphate pH 7.4)
T1 sequence (P02769 25-607): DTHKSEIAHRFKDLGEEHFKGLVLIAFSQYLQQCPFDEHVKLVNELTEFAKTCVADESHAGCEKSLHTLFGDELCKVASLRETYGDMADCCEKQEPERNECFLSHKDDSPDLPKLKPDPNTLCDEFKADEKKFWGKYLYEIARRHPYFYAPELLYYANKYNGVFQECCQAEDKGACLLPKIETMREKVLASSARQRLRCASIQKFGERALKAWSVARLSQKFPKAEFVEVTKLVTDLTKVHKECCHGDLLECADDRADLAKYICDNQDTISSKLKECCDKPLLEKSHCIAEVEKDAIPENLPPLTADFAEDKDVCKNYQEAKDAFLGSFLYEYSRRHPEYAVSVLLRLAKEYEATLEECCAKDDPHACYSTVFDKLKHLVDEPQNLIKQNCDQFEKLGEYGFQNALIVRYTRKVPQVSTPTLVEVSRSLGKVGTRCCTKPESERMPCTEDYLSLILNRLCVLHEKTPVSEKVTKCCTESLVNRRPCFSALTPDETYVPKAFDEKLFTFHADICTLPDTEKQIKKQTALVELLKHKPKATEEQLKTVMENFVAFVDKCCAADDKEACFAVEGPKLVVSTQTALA
Description: Subsequently, it was of interest how the observed divergent maleimide hydrolysis rates impact the albumin binding kinetics. Therefore, the different platinum(IV) complexes were incubated in phosphate-buffered fetal calf serum (FCS) at 37 °C over 25 h and ^195Pt traces were measured via size-exclusion chromatographyinductively coupled plasma mass spectrometry (SEC-ICP-MS). Serum proteins (including albumin) have a retention time of 2–4 min, with the albumin fraction eluting at 4.0 min (Figure S1) as part of the high-molecular weight fraction (HMWF) and unbound platinum(IV) complexes elute in the low-molecular weight fraction (LMWF) with retention times usually >5 min. Already at time point 0, ∼60% of Ox-OAc-PEG4-Mal (tR = 6.4 min) was bound to albumin at 4.0 min in the HMWF, which increased to ∼90% after 1 h of incubation (Figure 2A). The remaining 10% of the parental complex (at tR > 5 min) most likely either contained a hydrolyzed maleimide moiety, unable to bind albumin, or were conjugated to low-molecular weight sulfur-containing compounds. The formed platinum(IV)-albumin conjugate remained stable for more than 25 h. […] In the LMWF, only a small peak of still intact Ox-OAc-PIP-C2-Mal (tR 6.5 min) could be observed, while a major signal (∼35%) of most likely already hydrolyzed maleimide compound appeared at tR 5.8 min. This is in very good agreement with the very fast hydrolysis of the maleimide moiety shown above (see Figure 1).
FCS was purchased from Sigma-Aldrich and buffered with 150 mM phosphate pH 7.4 in order to guarantee a stable pH. The platinum(IV) complexes (5 mM) were dissolved in 150 mM phosphate buffer (pH 7.4) and diluted […] in the buffered serum to obtain a final concentration of 100 μM. The samples were incubated in the autosampler at 37 °C and analyzed at 0, 1, 4, 24, and 25 h time points. Between each sample a pure water blank was measured. For SEC-ICP-MS measurements an Agilent 1260 Infinity system coupled to an Agilent 7800 ICP-MS equipped with a dynamic reaction cell was used. Oxygen (purity 5.5, Messer Austria GmbH, Gumpoldskirchen, Austria) was used as reaction gas.

[1] = Aqueous solubility measurements (stepwise solvent addition, stereo microscope); type: physicochemical; details: for solubility: thermodynamic from solid, read-out: solubility, conc.
Excerpt: Thus, the impact of the pH value on the solubilities of the Ox-Ibu-PIP-X-Mal complexes was investigated. Commercially available 0.9% NaCl has a pH of roughly 5, but when acidified to pH 3, the solubilities of both Ox-Ibu-PIP-X-Mal complexes increased by a factor of 1.5. […] Expectedly, using phosphate buffer or phosphate-buffered saline (PBS) at pH 7.4 further decreased the solubility.
5% glucose and 0.9% NaCl solutions were purchased from B. Braun. 0.9% NaCl solutions were acidified to pH 3.0 using 1 M HCl and basified to pH 7.0 using 1 M NaOH. Aqueous buffers (citrate, PB, PBS) were prepared in 100 mM concentrations. One mg of compound was weighted using a Sartorius ME215P analytical balance and the solubility was investigated according to the following stepwise interval: +1 μL in the volume range 0–10 μL; +10 μL in the volume range 10–100 μL; +100 μL in the volume range 100–1000 μL; +1000 μL in the volume range 1000–5000 μL. Dissolution of the sample was investigated using a Leica M80 routine stereo microscope (50× magnification) until no solid particles were observed.

[2] = Hydrolytic stability of the maleimide in phosphate buffer, UHPLC; type: physicochemical; details: 1 mM, 150 mM phosphate buffer pH 7.4, 20 °C
Description: It is known from literature that most maleimides are prone to hydrolysis at physiological pH.[38] Consequently, the hydrolytic stabilities of the three oxaliplatin(IV)-acetato complexes bearing the piperazine maleimides were studied in comparison to the reference complex Ox-OAc-PEG4-Mal. The hydrolysis of the platinum(IV)-acetato complexes was investigated in phosphate buffer at pH 7.4 and 20 °C over 5 h and the amount of remaining intact parental complex was monitored with ultrahigh-performance liquid chromatography (UHPLC) (Figure 1). Ox-OAc-PIP-C2-Mal hydrolyzed rapidly, with only traces of intact platinum(IV)-maleimide remaining after 1 h incubation time. […] These dramatic differences are in line with some model maleimide compounds reported in literature, also containing piperazine moieties.[38] The strong inductive effects of the protonated quaternary nitrogen of the piperazine can explain the extremely fast hydrolysis of Ox-OAc-PIP-C2-Mal.
Phosphate buffer (150 mM, pH 7.4) containing 1 mM platinum compound was incubated at 20 °C. The reaction was monitored on a Thermo Scientific Dionex UltiMate 3000 UHPLC-system using a Waters Acquity UPLC BEH C18 1.7 μm 3.0 mm × 50 mm column. Milli-Q water, containing 0.1% formic acid, and acetonitrile containing 0.1% formic acid were used as eluents. A gradient of 5–95% over 5 min was used. […]

[3] = 0.9% NaCl solution, pH 5, saline or isotonic, 0.9% NaCl
[4] = 5% glucose solution, saline or isotonic, 5% glucose

solubility [1, 3] [mM]	solubility [1, 4] [mM]	Compound	bound to albumin at time point 0 (albumin) [%]	bound to albumin after 1 h of incubation (albumin) [%]	further results
		CC(=O)[O][Pt]12([O]C(=O)NCCN3CCN(CCN4C(=O)C=CC4=O)CC3)([NH][C@@H]3CCCC[C@H]3[NH]1)[O]C(=O)C(=O)[O]2 [Ox-OAc-PIP-C2-Mal, (OC-6–34)-Acetato-[(1R,2R)-1,2-cyclohexanediamino][(2-(4-(2-(2,5-dioxo-2,5-dihydro-1H-pyrrol-1-yl)ethyl)piperazin-1-yl)ethyl)carbamato]oxalatoplatinum(IV)]	~60		signal of most likely already hydrolyzed maleimide compound in LMWF (tR 5.8 min) (albumin; FCS, pH 7.4, 37 °C): ~35%; course of albumin binding over time (albumin; FCS, pH 7.4, 37 °C, over 25 h): did not further increase over time
1400 (≈ 1010 mg/mL)	600 (≈ 431 mg/mL)	CC(C)[C@H](NC(=S)NCCN1CCN(CCOCCN2C(=O)C=CC2=O)CC1)C(=O)N[C@@H](CCCNC(N)=O)C(=O)Nc1ccc(CO)cc1 [Mal-O-PIP-ThioU-ValCitPAB-OH, (S)-2-((S)-2-(3-(2-(4-(2-(2-(2,5-Dioxo-2,5-dihydro-1H-pyrrol-1-yl)ethoxy)ethyl)piperazin-1-yl)ethyl)thioureido)-3-methylbutanamido)-N-(4-(hydroxymethyl)phenyl)-5-ureidopentanamide]			
1500 (≈ 1030 mg/mL)	700 (≈ 481 mg/mL)	CC(C)[C@H](NC(=O)CCN1CCN(CCOCCN2C(=O)C=CC2=O)CC1)C(=O)N[C@@H](CCCNC(N)=O)C(=O)Nc1ccc(CO)cc1 [Mal-O-PIP-ValCitPAB-OH, (S)-2-((S)-2-(3-(4-(2-(2-(2,5-Dioxo-2,5-dihydro-1H-pyrrol-1-yl)ethoxy)ethyl)piperazin-1-yl)propanamido)-3-methylbutanamido)-N-(4-(hydroxymethyl)phenyl)-5-ureidopentanamide]			
		CC(=O)[O][Pt]12([O]C(=O)NCCN3CCN(CCOCCN4C(=O)C=CC4=O)CC3)([NH][C@@H]3CCCC[C@H]3[NH]1)[O]C(=O)C(=O)[O]2 [Ox-OAc-PIP-O-Mal, (OC-6–34)-Acetato-[(1R,2R)-1,2-cyclohexanediamino][(2-(4-(2-(2-(2,5-dioxo-2,5-dihydro-1H-pyrrol-1-yl)ethoxy)ethyl)piperazin-1-yl)ethyl)carbamato]oxalatoplatinum(IV)]	75	~95	
		CC(=O)[O][Pt]12([O]C(=O)NCCN3CCN(CCCCCN4C(=O)C=CC4=O)CC3)([NH][C@@H]3CCCC[C@H]3[NH]1)[O]C(=O)C(=O)[O]2 [Ox-OAc-PIP-C5-Mal, (OC-6–34)-Acetato-[(1R,2R)-1,2-cyclohexanediamino][(2-(4-(5-(2,5-dioxo-2,5-dihydro-1H-pyrrol-1-yl)pentyl)piperazin-1-yl)ethyl)carbamato]oxalatoplatinum(IV)]	69	~95	
1300 (≈ 985 mg/mL)	600 (≈ 455 mg/mL)	CC(C)[C@H](NC(=O)CCC(=O)NCCN1CCN(CCOCCN2C(=O)C=CC2=O)CC1)C(=O)N[C@@H](CCCNC(N)=O)C(=O)Nc1ccc(CO)cc1 [Mal-O-PIP-Succ-ValCitPAB-OH, N1-(2-(4-(2-(2-(2,5-Dioxo-2,5-dihydro-1H-pyrrol-1-yl)ethoxy)ethyl)piperazin-1-yl)ethyl)-N4-((S)-1-(((S)-1-((4-(hydroxymethyl)phenyl)amino)-1-oxo-5-ureidopentan-2-yl)amino)-3-methyl-1-oxobutan-2-yl)succinamide]			
40 (≈ 28.3 mg/mL)	20 (≈ 14.1 mg/mL)	CC(C)C(NC(=O)CCOCCOCCOCCOCCN1C(=O)C=CC1=O)C(=O)NC(CCCNC(N)=O)C(=O)Nc1ccc(CO)cc1 (stereo not shown) [Mal-PEG4-ValCitPAB-OH, reference compound]			solubility, conc. ([1]; 0.9% NaCl): 35 mM (≈ 24.7 mg/mL); solubility, conc. ([1]; 5% glucose): 24 mM (≈ 17 mg/mL)
		CC(=O)[O][Pt]12([O]C(=O)NCCOCCOCCOCCOCCN3C(=O)C=CC3=O)([NH][C@@H]3CCCC[C@H]3[NH]1)[O]C(=O)C(=O)[O]2 [Ox-OAc-PEG4-Mal, (OC-6–34)-Acetato-[(1R,2R)-1,2-cyclohexanediamino][(14-(2,5-dioxo-2,5-dihydro-1H-pyrrol-1-yl)-3,6,9,12-tetraoxatetradecyl)carbamato]oxalatoplatinum(IV)]	~60	~90	time the formed platinum(IV)-albumin conjugate remained stable (albumin; FCS, pH 7.4, 37 °C): over 25 h; remaining parental complex not bound to albumin (tR > 5 min) (albumin; FCS, pH 7.4, 37 °C, after 1 h): 10%; intact maleimide / intact complex remaining after 5 h incubation [2]: ~70%
